Assay results taken from ChEMBL document CHEMBL5505997, “Synthesis and biological evaluation of novel peptidomimetic inhibitors of the coronavirus 3C-like protease” (Eur J Med Chem, 2024).

Experiments:
SARS-CoV-2 [1] = assay: Antiviral activity against SARS-CoV-2 WA1 harboring NSP5 E166V mutant infected in HEK293T cells measured after 48 hrs by Nano-Glo luciferase assay; format: functional, organism-based, Severe acute respiratory syndrome coronavirus 2
SARS-CoV-2 [2] = assay: Selectivity ratio of EC50 for antiviral activity against SARS-CoV-2 WA1 harboring NSP5 E166V mutant infected in HEK293T cells to EC50 for antiviral activity against wild type SARS-CoV-2 WA1 infected in HEK293T cells; format: functional
SARS-CoV-2 [3] = assay: Antiviral activity against SARS-CoV-2 Omicron BA.1 harboring NSP5 E166V mutant infected in HEK293T cells measured after 48 hrs by Nano-Glo luciferase assay; format: functional, organism-based, Severe acute respiratory syndrome coronavirus 2
SARS-CoV-2 [4] = assay: Selectivity ratio of EC50 for antiviral activity against SARS-CoV-2 WA1 harboring NSP5 L50F/E166V mutant infected in HEK293T cells to EC50 for antiviral activity against wild type SARS-CoV-2 WA1 infected in HEK293T cells; format: functional
SARS-CoV-2 [5] = assay: Antiviral activity against SARS-CoV-2 WA1 harboring NSP5 L50F/E166V mutant infected in HEK293T cells measured after 48 hrs by Nano-Glo luciferase assay; format: functional, organism-based, Severe acute respiratory syndrome coronavirus 2
SARS-CoV-2 [6] = assay: Antiviral activity against SARS-CoV-2 Omicron BA.1 harboring NSP5 L50F/E166V mutant infected in HEK293T cells measured after 48 hrs by Nano-Glo luciferase assay; format: functional, organism-based, Severe acute respiratory syndrome coronavirus 2
SARS-CoV-2 [7] = assay: Antiviral activity against SARS-CoV-2 WA1 harboring NSP5 L50F/E166A/L167F mutant infected in HEK293T cells measured after 48 hrs by Nano-Glo luciferase assay; format: functional, organism-based, Severe acute respiratory syndrome coronavirus 2
SARS-CoV-2 [8] = assay: Selectivity ratio of EC50 for antiviral activity against SARS-CoV-2 WA1 harboring NSP5 L50F/E166A/L167F mutant infected in HEK293T cells to EC50 for antiviral activity against wild type SARS-CoV-2 WA1 infected in HEK293T cells; format: functional
SARS-CoV-2 [9] = assay: Selectivity ratio of EC50 for antiviral activity against SARS-CoV-2 Omicron BA.1 harboring NSP5 E166V mutant infected in HEK293T cells to EC50 for antiviral activity against wild type SARS-CoV-2 Omicron BA.1 infected in HEK293T cells; format: functional
SARS-CoV-2 [10] = assay: Selectivity ratio of EC50 for antiviral activity against SARS-CoV-2 Omicron BA.1 harboring NSP5 L50F/E166A/L167F mutant infected in HEK293T cells to EC50 for antiviral activity against wild type SARS-CoV-2 Omicron BA.1 infected in HEK293T cells; format: functional
SARS-CoV-2 [11] = assay: Antiviral activity against SARS-CoV-2 Omicron BA.1 harboring NSP5 L50F/E166A/L167F mutant infected in HEK293T cells measured after 48 hrs by Nano-Glo luciferase assay; format: functional, organism-based, Severe acute respiratory syndrome coronavirus 2
SARS-CoV-2 [12] = assay: Selectivity ratio of EC50 for antiviral activity against SARS-CoV-2 Omicron BA.1 harboring NSP5 L50F/E166V mutant infected in HEK293T cells to EC50 for antiviral activity against wild type SARS-CoV-2 Omicron BA.1 infected in HEK293T cells; format: functional
SARS-CoV-2 [13] = assay: Antiviral activity against SARS-CoV-2 Omicron BA.1 harboring NSP5 T21I mutant infected in HEK293T cells measured after 48 hrs by Nano-Glo luciferase assay; format: functional, organism-based, Severe acute respiratory syndrome coronavirus 2
SARS-CoV-2 [14] = assay: Antiviral activity against SARS-CoV-2 WA1 harboring NSP5 T21I mutant infected in HEK293T cells measured after 48 hrs by Nano-Glo luciferase assay; format: functional, organism-based, Severe acute respiratory syndrome coronavirus 2
SARS-CoV-2 [15] = assay: Antiviral activity against SARS-CoV-2 Omicron BA.1 harboring NSP5 T21I/E166V mutant infected in HEK293T cells measured after 48 hrs by Nano-Glo luciferase assay; format: functional, organism-based, Severe acute respiratory syndrome coronavirus 2
SARS-CoV-2 [16] = assay: Antiviral activity against SARS-CoV-2 WA1 harboring NSP5 T21I/E166V mutant infected in HEK293T cells measured after 48 hrs by Nano-Glo luciferase assay; format: functional, organism-based, Severe acute respiratory syndrome coronavirus 2
SARS-CoV-2 [17] = assay: Selectivity ratio of EC50 for antiviral activity against SARS-CoV-2 Omicron BA.1 harboring NSP5 T21I mutant infected in HEK293T cells to EC50 for antiviral activity against wild type SARS-CoV-2 Omicron BA.1 infected in HEK293T cells; format: functional
SARS-CoV-2 [18] = assay: Selectivity ratio of EC50 for antiviral activity against SARS-CoV-2 WA1 harboring NSP5 T21I mutant infected in HEK293T cells to EC50 for antiviral activity against wild type SARS-CoV-2 WA1 infected in HEK293T cells; format: functional
SARS-CoV-2 [19] = assay: Selectivity ratio of EC50 for antiviral activity against SARS-CoV-2 Omicron BA.1 harboring NSP5 T21I/E166V mutant infected in HEK293T cells to EC50 for antiviral activity against wild type SARS-CoV-2 Omicron BA.1 infected in HEK293T cells; format: functional
SARS-CoV-2 [20] = assay: Selectivity ratio of EC50 for antiviral activity against SARS-CoV-2 WA1 harboring NSP5 T21I/E166V mutant infected in HEK293T cells to EC50 for antiviral activity against wild type SARS-CoV-2 WA1 infected in HEK293T cells; format: functional

SMILES	EC50 (SARS-CoV-2 [1])	Ratio EC50 (SARS-CoV-2 [2])	EC50 (SARS-CoV-2 [3])	Ratio EC50 (SARS-CoV-2 [4])	EC50 (SARS-CoV-2 [5])	EC50 (SARS-CoV-2 [6])	EC50 (SARS-CoV-2 [7])	Ratio EC50 (SARS-CoV-2 [8])	Ratio EC50 (SARS-CoV-2 [9])	Ratio EC50 (SARS-CoV-2 [10])	EC50 (SARS-CoV-2 [11])	Ratio EC50 (SARS-CoV-2 [12])	EC50 (SARS-CoV-2 [13])	EC50 (SARS-CoV-2 [14])	EC50 (SARS-CoV-2 [15])	EC50 (SARS-CoV-2 [16])	Ratio EC50 (SARS-CoV-2 [17])	Ratio EC50 (SARS-CoV-2 [18])	Ratio EC50 (SARS-CoV-2 [19])	Ratio EC50 (SARS-CoV-2 [20])
CCC(CC)COC(=O)[C@H](C)N[P@](=O)(OC[C@H]1O[C@@](C#N)(c2ccc3c(N)ncnn23)[C@H](O)[C@@H]1O)Oc1ccccc1	11 nM	1.1	6 nM	0.7	7 nM	6 nM	11 nM	1.1	0.4	0.7	9 nM	0.4	–	–	–	–	–	–	–	–
CC(C)(C)[C@H](NC(=O)C(F)(F)F)C(=O)N1C[C@H]2[C@@H]([C@H]1C(=O)N[C@H](C#N)C[C@@H]1CCNC1=O)C2(C)C	4500 nM	–	7300 nM	–	3900 nM	8600 nM	610 nM	–	–	–	2900 nM	–	280 nM	80 nM	12000 nM	8500 nM	–	–	–	–
Cc1cc(C(=O)N[C@@H](Cc2cccc3ccccc23)C(=O)N[C@@H](CC(C)C)C(=O)N[C@H](C=O)C[C@@H]2CCCNC2=O)no1	130 nM	0.6	80 nM	0.9	170 nM	150 nM	390 nM	2	0.2	1.5	490 nM	0.5	680 nM	360 nM	150 nM	170 nM	2.1	1.8	0.5	0.8
